{"source": "patent US9308244B2", "about": "“Combination therapy using active immunotherapy” (immatics Biotechnologies GmbH, priority 2007, dated 2016)", "key": {"[1]": {"system": "primary clear cell renal cell carcinoma (ccRCC)", "assay": "mRNA expression in primary ccRCC tumor tissue of a patient treated with sorafenib before surgery", "assay_type": "in vivo, human", "procedure": "mRNA expression was measured as described in 1.1 except that mRNA from 20 primary clear cell renal cell carcinoma (ccRCC) samples of patients not treated with TKIs and 1 locally recurring ccRCC tumor sample of a patient having received sorafenib treatment (800 mg Nexavar™ per day starting 35 days before and stopping 2 days before surgery) previous to surgery were included in this analysis.\nTumor tissue specimens were snap-frozen in liquid nitrogen immediately after surgery and later homogenized with mortar and pestle under liquid nitrogen. Total RNA was prepared from these samples using TRIzol (Invitrogen) or TRI Reagent (Fermentas) followed by a cleanup with RNeasy (QIAGEN); both methods were performed according to the manufacturers' protocols.\nGene expression analysis of the tumor samples was performed by Affymetrix Human Genome (HG) U133A or HG-U133 Plus 2.0 oligonucleotide microarrays (Affymetrix, Santa Clara, Calif., USA). A normal reference kidney sample was hybridized to both array types to achieve direct comparability of all samples.\nBriefly, double-stranded cDNA was synthesized from 5-8 μg of total RNA, using SuperScript RTII (Invitrogen) and the oligo-dT-T7 primer (MWG Biotech, Ebersberg, Germany) as described in the manual. […] Pairwise comparisons were calculated using the respective normal reference kidney array as baseline. […] Relative expression values were calculated from the signal log ratios given by the software and the normal kidney sample was arbitrarily set to 1.0."}, "C57BL/6 T cells": {"system": "C57BL/6 T cells", "assay": "Mouse mixed lymphocyte reaction (CFSE-labeled C57BL/6 spleen cells vs irradiated BALB/c splenocytes)", "assay_type": "cell-based", "details": "for Cell morphology in flow cytometry (putatively toxic effects): 13 μM sorafenib", "procedure": "CFSE-labeled spleen cells from C57BL/6 (H2-b) mice were co-cultured with irradiated splenocytes from BALB/c (H2-d) mice, resulting in the strong allogenic response and proliferation of the C57BL/6 T cells against H2-d MHC molecules. The proliferation of the T cells results in a diminished CFSE staining of the divided cells. Percentage of divided cells and their number of divisions can be analyzed by flow cytometry.\nSpleen cells were prepared from 1 C57BL/6 mouse and 1 BALB/c mouse (Harlan Winkelmann GmbH, Borchen, Germany). BALB/c cells were irradiated with 33 Gy. Effectors (C57BL/6) were adjusted to 20 Mio cells/ml. A 2 mM 5(6)-Carboxyfluorescindiacetate-N-succinimidylester (CFSE, Fluka, Buchs, Switzerland) solution in PBS was freshly prepared from a 10 mM DMSO stock solution. The cell suspension was mixed 1:1 with the CFSE solution. After incubation at 37° C. for 4 min, reaction was stopped by addition of fetal calf serum (Biochrom, Berlin, Germany), and free CFSE was washed out. 2×10^5 stimulator cells (BALB/c) were plated into cavities of a 96-well round-bottom plate. 1×10^5 or 2×10^5 CFSE-labeled effector cells and tyrosine kinase inhibitors at two different concentrations were added. Appropriate positive and negative controls were included. All cultures were in 200 μl T-cell medium with 0.1% (v/v) DMSO for 5 or 7 days without further medium change. Thereafter, cells were stained with fluorescently labelled anti-CD4-PerCP and anti-CD8-FITC antibodies (both BD Biosciences, Heidelberg, Germany) and analyzed by flow cytometry.\nThe experiment described above was repeated with the exception that a 96-well flat-bottom plate was used for mixed lymphocyte reactions (MLRs), a syngenic control with irradiated C57BL/6 cells was included, more concentrations of inhibitors were assessed, and all groups were analyzed in triplicates.\nDuring cultivation, half of the medium was replaced with fresh appropriate medium supplemented with final concentrations of tyrosine kinase inhibitors every day, and proliferation was analyzed at day 7 only. Additionally cells were stained for H2-Kb to clearly identify effector cells in a further dimension."}, "human CD8+ T-cells": {"system": "human CD8+ T-cells", "assay": "Artificial APC (pMHC/anti-CD28 bead) priming and expansion of isolated human CD8+ T-cells, MLA-001 tetramer readout", "assay_type": "cell-based", "details": "three stimulation cycles, high and low density pMHC, absence of natural antigen presenting cells"}, "[2]": {"system": "OVA-001 specific CD8+ T-cells", "assay_type": "in vivo, C57BL/6 mice"}, "[3]": {"system": "CD4+ CD25+ Tregs, T cells, B cells, splenocytes", "assay": "Immune cell populations in spleen and PBMCs of TKI-treated mice", "assay_type": "in vivo, C57BL/6 mice", "details": "4 weeks treatment"}, "[4]": {"assay": "HPLC quantification of TKI plasma levels in mouse models", "assay_type": "in vivo", "details": "oral dosing", "method": "The proteins were precipitated with 40 μl 100% acetonitril (Acros, Geel, Belgium), centrifuged and filtered through a 0.2 μm PVDF filter. 10 μl was directly injected to the HPLC system.\nThe HPLC system consisted of a Binary HPLC pump (Shimadzu LC10aVP), a Shimadzu SIL-10aVP autosampler, a Shimadzu CTO-10asVP column oven and a Shimadzu SPD10aVP detector. Data acquisition and analysis was performed using the Shimadzu Class-VP 7.3 software. Chromatographic separation was carried out on a reverse phase C18 column (Reprosil Pur ODS-3μ, 60×2 mm). To protect the analytical column a guard column has been used (Reprosil Pur ODS-5μ, 10×2 mm). Eluent A consisted of water (LCMS grade, Acros, Geel, Belgium), modified by 0.1% formic acid (Merck, Darmstadt, Germany) and eluent B was 80% acetonitril (Acros, Geel, Belgium) with 0.1% formic acid (Merck, Darmstadt, Germany).\nThe following gradient was used: 5 min 25% eluent B, 15 min 62.5% eluent B, 6 min 80% eluent B and 5 min 80% eluent B. The temperature of the autosampler was kept at 4° C. The temperature of the column was maintained at 30° C. The detection wavelength was set at 400 nm, the injection volume was 10 μl. The column was equilibrated with the mobile phase at a flow rate 0.5 ml/min.\nFor Sorafenib analysis, 10 μl of 50% acetonitril (Acros, Geel, Belgium) was added to 50 serum or medium in 0.5 ml PCR tubes and mixed for 10 seconds. […]"}, "A498 tumor cells": {"system": "A498 tumor cells", "details": "A498, 24 h; 13 μM sorafenib or 250 nM sunitinib; normal medium control = 100%"}, "[5]": {"details": "RCC of one patient, 800 mg Nexavar per day from 35 to 2 days before surgery, normal kidney = 1.0"}, "[6]": {"details": "RCC of one patient, 800 mg Nexavar per day from 35 to 2 days before surgery, normal kidney = 1.0, listed as sorafenib"}}, "note": "“Also recorded” adds a separate entry of the source.", "data": [{"compound": "CNC(=O)c1cc(Oc2ccc(NC(=O)Nc3ccc(Cl)c(C(F)(F)F)c3)cc2)ccn1", "note": "[Sorafenib, 4-(4-{3-[4-Chloro-3-(trifluoromethyl)phenyl]ureido}phenoxy)-N-methylpyrid-ine-2-carboxamide]", "values": [{"measurement": "Expression relative to normal reference kidney: ADFP", "setting": "[1]; [5]", "result": 5.7}, {"measurement": "Expression relative to normal reference kidney: APOL1", "setting": "[1]; [5]", "result": 19.7}, {"measurement": "Expression relative to normal reference kidney: CCND1", "setting": "[1]; [5]", "result": 3.2}, {"measurement": "Expression relative to normal reference kidney: GUCY1A3", "setting": "[1]; [5]", "result": 0.5}, {"measurement": "Expression relative to normal reference kidney: HLA-A", "setting": "[1]; [5]", "result": 0.9}, {"measurement": "Expression relative to normal reference kidney: HLA-B", "setting": "[1]; [5]", "result": 2.1}, {"measurement": "Expression relative to normal reference kidney: HLA-C", "setting": "[1]; [5]", "result": 1.0}, {"measurement": "Expression relative to normal reference kidney: HLA-DPB1", "setting": "[1]; [5]", "result": 4.0}, {"measurement": "Expression relative to normal reference kidney: HLA-DQB1", "setting": "[1]; [5]", "result": 168.9}, {"measurement": "Expression relative to normal reference kidney: HLA-DRB1", "setting": "[1]; [5]", "result": 2.8}, {"measurement": "Expression relative to normal reference kidney: KIAA0367", "setting": "[1]; [5]", "result": 1.2}, {"measurement": "Expression relative to normal reference kidney: MET", "setting": "[1]; [5]", "result": 9.8}, {"measurement": "Expression relative to normal reference kidney: MMP7", "setting": "[1]; [5]", "result": 6.1}, {"measurement": "Expression relative to normal reference kidney: MUC1", "setting": "[1]; [5]", "result": 0.3}, {"measurement": "Expression relative to normal reference kidney: PSMB8", "setting": "[1]; [5]", "result": 3.5}, {"measurement": "Expression relative to normal reference kidney: PSMB9", "setting": "[1]; [5]", "result": 5.7}, {"measurement": "Expression relative to normal reference kidney: RGS5", "setting": "[1]; [5]", "result": 1.5}, {"measurement": "Expression relative to normal reference kidney: TAP1", "setting": "[1]; [5]", "result": 2.1}, {"measurement": "Expression relative to normal reference kidney: GUCY1A3", "setting": "[1]; [6]", "result": "at the lower boundary of the range"}, {"measurement": "Expression relative to normal reference kidney: RGS5", "setting": "[1]; [6]", "result": "at the lower boundary of the range"}, {"measurement": "Expression profile of tumor associated antigens or their HLA presentation in vivo vs range of untreated ccRCC (in words)", "setting": "[1]; one sorafenib-treated patient vs 20 untreated ccRCC, range = mean ± one standard deviation", "result": "lie within this range for most antigens; also recorded: do not provide any evidence for a potential influence"}, {"measurement": "CD4+ T-cell proliferation in response to allogenic stimuli (summary)", "setting": "C57BL/6 T cells", "result": "increased"}, {"measurement": "CD8+ T-cell proliferation in response to allogenic stimuli (summary)", "setting": "C57BL/6 T cells", "result": "slightly decreased; also recorded: slightly reduced"}, {"measurement": "CD8 proliferation", "setting": "C57BL/6 T cells; first experiment, 1.3 μM sorafenib", "result": "only slightly affected"}, {"measurement": "Cell morphology in flow cytometry (putatively toxic effects)", "setting": "C57BL/6 T cells; first experiment", "result": "different morphology"}, {"measurement": "Cell morphology in flow cytometry (putatively toxic effects)", "setting": "C57BL/6 T cells; first experiment, listed as sorafenib", "result": "clear change in morphology"}, {"measurement": "Level inducing toxic effects (dramatically changed morphology of cells in flow cytometry)", "setting": "C57BL/6 T cells; second experiment", "result": "≥ 6.5", "unit": "μM"}, {"measurement": "Cell morphology (toxic effects of the drug)", "setting": "C57BL/6 T cells; second experiment, 6.5 or 13 μM Sorafenib", "result": "severe changes in morphology"}, {"measurement": "CD8+ proliferation", "setting": "C57BL/6 T cells; second experiment, day 7", "result": "slight decrease"}, {"measurement": "Proliferation of CD4+ cells", "setting": "C57BL/6 T cells; second experiment, day 7, 1.6 μM sorafenib", "result": "significant increase"}, {"measurement": "Drug-related toxicity for cells in mixed lymphocyte reactions (summary)", "setting": "C57BL/6 T cells; sorafenib: at concentration near the steady-state plasma level of treated patients", "result": "toxic"}, {"measurement": "Priming and expansion of MLA-001 specific CD8+ T-cells (% tetramer+ among CD8+ lymphocytes, total number per well)", "setting": "human CD8+ T-cells", "result": "no concentration-dependent influence; also recorded: not altered"}, {"measurement": "Reversibility of the immunosuppressive influence after discontinuation of treatment", "setting": "[2]; mouse, in vivo", "result": "rapidly reversed"}, {"measurement": "Numbers of OVA-001-specific T-cells", "setting": "[2]; treatment stopped 48 h before first immunization, 80 mg/kg bw sunitinib, both sorafenib dosages, differences not significant", "result": "Reduced numbers"}, {"measurement": "Number of CD4+ CD25+ Tregs among total CD4+ cells in PBMCs", "setting": "[3]", "result": "unchanged or even slightly elevated"}, {"measurement": "Bioavailability / plasma levels at the used doses", "setting": "[4]", "result": "confirmed to reach plasma levels shown by others to be effective in tumor growth inhibition"}, {"measurement": "% Expression relative to control: ADFP", "setting": "A498 tumor cells", "result": 100, "unit": "%"}, {"measurement": "% Expression relative to control: APOL1", "setting": "A498 tumor cells", "result": 71, "unit": "%"}, {"measurement": "% Expression relative to control: CCND1", "setting": "A498 tumor cells", "result": 81, "unit": "%"}, {"measurement": "% Expression relative to control: GUCY1A3", "setting": "A498 tumor cells", "result": 44, "unit": "%"}, {"measurement": "% Expression relative to control: HLA-A", "setting": "A498 tumor cells", "result": 100, "unit": "%"}, {"measurement": "% Expression relative to control: HLA-B", "setting": "A498 tumor cells", "result": 87, "unit": "%"}, {"measurement": "% Expression relative to control: HLA-C", "setting": "A498 tumor cells", "result": 87, "unit": "%"}, {"measurement": "% Expression relative to control: MET", "setting": "A498 tumor cells", "result": 62, "unit": "%"}, {"measurement": "% Expression relative to control: MMP7", "setting": "A498 tumor cells", "result": 25, "unit": "%"}, {"measurement": "% Expression relative to control: MUC1", "setting": "A498 tumor cells", "result": 107, "unit": "%"}, {"measurement": "% Expression relative to control: PSMB8", "setting": "A498 tumor cells", "result": 87, "unit": "%"}, {"measurement": "% Expression relative to control: PSMB9", "setting": "A498 tumor cells", "result": 123, "unit": "%"}, {"measurement": "% Expression relative to control: TAP1", "setting": "A498 tumor cells", "result": 123, "unit": "%"}]}]}
